Reference: patent US20020028938A1, “Prostaglandin endoperoxide H synthase biosynthesis inhibitors” (priority 1997, published 2002)

Experiments:
[1] = molecular target: T1, human amnionic whole cell cyclooxygenase-2 (WISH cells) (Homo sapiens, UniProt P35354); assay: IL-1β induced PGE2 production in WISH cells; assay type: cell-based; conditions: for IC50: read-out: Wish IC50 (parenthetical value)
T1 construct: endogenous in cells; host or cells: human amnionic WISH cells, induced with IL-1beta
T1 sequence (P35354 18-604): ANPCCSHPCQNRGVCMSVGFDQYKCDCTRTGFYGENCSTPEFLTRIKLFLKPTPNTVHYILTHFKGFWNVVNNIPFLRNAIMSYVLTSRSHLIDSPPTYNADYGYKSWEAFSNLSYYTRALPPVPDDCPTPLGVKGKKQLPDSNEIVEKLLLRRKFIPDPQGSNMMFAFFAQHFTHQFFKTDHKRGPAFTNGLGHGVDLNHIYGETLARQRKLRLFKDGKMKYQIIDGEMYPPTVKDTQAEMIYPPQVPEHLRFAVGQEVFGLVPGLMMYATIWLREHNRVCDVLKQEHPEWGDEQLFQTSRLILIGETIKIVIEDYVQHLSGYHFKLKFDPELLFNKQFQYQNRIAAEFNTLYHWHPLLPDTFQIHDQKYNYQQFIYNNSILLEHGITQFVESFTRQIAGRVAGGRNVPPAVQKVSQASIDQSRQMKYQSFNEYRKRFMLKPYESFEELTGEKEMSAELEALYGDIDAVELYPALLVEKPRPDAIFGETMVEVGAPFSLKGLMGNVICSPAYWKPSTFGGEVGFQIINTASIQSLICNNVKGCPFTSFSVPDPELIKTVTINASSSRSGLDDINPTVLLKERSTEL
Outline: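 PGE2 was quantified by enzyme immunoassay (optical density read) against standards made up in the matching medium. WISH cells at 80% confluence, washed and placed in serum-free Neuman-Tytell medium, received 5 ng/ml IL-1β plus test compound or DMSO vehicle (0.01% v/v).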

[2] = system: air pouch prostaglandin biosynthesis (Cox-2); assay: Carrageenan induced air pouch prostaglandin biosynthesis model (CAP); assay type: in vivo, rat; conditions: for CAP % Inhib. @ 3 mpk / inhibition in vivo at 3 mg/kg: rat, 3 mpk; for inhibition in vivo at 3 mg/kg: 4 h, read-out: CAP % Inhib. @ 3 mpk; for ED50: Rattus norvegicus
Experimental: To compare the mean responses of the treatment groups, analysis of variance was applied. Percent inhibition values were determined by comparing the individual treatment mean values to the mean of the control group. Linear regression was used to estimate IC50's/ED50's in appropriate assays.
Carrageenan induced air pouch prostaglandin biosynthesis model (CAP) Air pouches are formed in the backs of male Sprague Dawley rats by injecting 20 mL of sterile air on day 0. Three days later the pouch was reinflated with an additional 10 mL of sterile air. On day 7, 1 mL of saline containing 0.2 % lambda carrageenan (Sigma Chemical Co.) is injected into the pouch to induce the inflammatory reaction that is characterized by the release of prostaglandins. Test compounds are dosed at 0.1 to 10 mg/kg 30 minutes prior to carrageenan. Four hours after the carrageenan injection the pouch is lavaged and levels of prostaglandins are determined by enzyme immuno-assay using commercially available kits. […] Values for Cox-2 inhibition that are parenthetical indicate ED50 values.

[3] = molecular target: T2, Human Whole Platelet Cyclooxygenase-1 (Homo sapiens, UniProt P23219); assay: Human Whole Platelet Cyclooxygenase-1 assay (HWPX); assay type: cell-based; conditions: for IC50: read-out: HWPX IC50 (parenthetical value)
T2 construct: from tissue; host or cells: human blood: isolated platelets (A4) or heparinised whole blood (A9)
T2 sequence (P23219 24-599): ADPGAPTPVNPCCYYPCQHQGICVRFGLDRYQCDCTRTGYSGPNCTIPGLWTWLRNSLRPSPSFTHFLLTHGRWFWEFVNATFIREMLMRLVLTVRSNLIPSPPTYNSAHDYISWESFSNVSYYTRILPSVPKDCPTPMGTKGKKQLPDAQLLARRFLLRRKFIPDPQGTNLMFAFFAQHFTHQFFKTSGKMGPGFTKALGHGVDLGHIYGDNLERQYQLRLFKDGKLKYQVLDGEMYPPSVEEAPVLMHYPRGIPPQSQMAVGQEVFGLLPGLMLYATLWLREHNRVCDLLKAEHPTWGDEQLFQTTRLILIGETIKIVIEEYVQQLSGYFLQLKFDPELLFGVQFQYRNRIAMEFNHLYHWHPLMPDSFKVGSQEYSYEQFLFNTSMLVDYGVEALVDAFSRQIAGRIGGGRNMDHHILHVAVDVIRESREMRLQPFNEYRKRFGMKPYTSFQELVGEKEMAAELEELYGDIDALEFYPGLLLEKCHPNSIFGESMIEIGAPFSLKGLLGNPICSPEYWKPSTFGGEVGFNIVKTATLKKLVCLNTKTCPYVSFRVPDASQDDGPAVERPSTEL
Outline: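 Thromboxane production was measured with a commercial kit after stimulation of washed human platelets (ACD-anticoagulated volunteer blood) by 8.8 μM final A23187 for 10 min. Test compounds were added 10 min before stimulus; cold 6 mM EDTA terminated the reaction.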

[4] = molecular target: T3, recombinant human Cox-2 (r-hu Cox-2) (Homo sapiens, UniProt P35354); assay: Recombinant human PGHS-2 enzyme assay (RHUCX2); assay type: biochemical; conditions: for IC50: read-out: RHUCX2 IC50 (parenthetical value)
T3 construct: made in house; host or cells: baculovirus/Sf9 insect cells (microsomes)
T3 sequence (P35354 18-604): T1 sequence (P35354 18-604)
Outline: (§1)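 PGE2 by EIA (optical density) → % inhibition vs control-group mean → IC50 from linear regression.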

[5] = molecular target: T4, recombinant human Cox-1 (r-hu Cox1) (Homo sapiens, UniProt P23219); assay: Recombinant human PGHS-1 enzyme assay (RHUCX1); assay type: biochemical
T4 construct: made in house; host or cells: baculovirus/Sf9 insect cells (microsomes)
T4 sequence (P23219 24-599): as above
Outline: as §1

[6] = read-out: RHUCX1 % Inh. at Dose
[7] = 100 μM, read-out: RHUCX1 % Inh. at Dose
[8] = read-out: RHUCX2 % Inh. at Dose
[9] = 1 μM, read-out: RHUCX2 % Inh. at Dose

| IC50 [1] [nM] | IC50 [3] [nM] | IC50 [4] [nM] | melting point [°C] | inhibition at 100 µM [5, 7] [%] | Compound | inhibition in vivo at 3 mg/kg [2] [%] | also measured |
| --- | --- | --- | --- | --- | --- | --- | --- |
| 1 | – | – | – | – | 2-(3-Methyl-2-butenyl)-4-(4-fluorophenyl)-5-[3-fluoro-4-(aminosulfonyl)phenyl]-3(2H)-pyridazinone [Example 123] | – | CAP % Inhib. @ 3 mpk [2]: 23%; HWPX % Inhib. at Dose (μM) ([3]; 0.1 μM): 29 @ .1%; HWPX % Inhib. at Dose (μM) ([3]; 1 μM): 90 @ 1% |
| 30 | 17500 | 135 | 187 to 188 | – | CS(=O)(=O)c1ccc(-c2cnn(-c3ccc(F)c(F)c3)c(=O)c2-c2ccc(Cl)cc2)cc1 [Example 106, 2-(3,4-Difluorophenyl)-4-(4-chlorophenyl)-5-[4-(methylsulfonyl)phenyl]-3(2H)-pyridazinone] | 47 | inhibition at 200 µM ([5]; 200 μM, read-out: RHUCX1 % Inh. at Dose): 19% |
| 46 | – | 1380 | 245 to 247 | 9 | Cc1cc(-c2c(-c3ccc(S(C)(=O)=O)cc3)cnn(-c3ccc(F)cc3)c2=O)ccc1F [Example 245, 2-(4-Fluorophenyl)-4-(4-fluoro-3-methylphenyl)-5-[4-(methylsulfonyl)phenyl]-3(2H)-pyridazinone] | 47 | – |
| 28 | 4700 | 134 | 55 to 58 | 0 | CC(C)CCc1c(-c2ccc(S(C)(=O)=O)cc2)cnn(-c2ccc(F)c(F)c2)c1=O [Example 256] | 47 | – |
| 41 | – | 86 | 126 to 128 | 0 | CC(C)(C)COc1c(-c2ccc(S(C)(=O)=O)cc2)cnn(-c2ccc(F)c(F)c2)c1=O [Example 349] | 63 | inhibition at 100 µM ([3]; 100 μM, read-out: HWPX % Inhib. at Dose): 34% |
| 2 | 1620 | 30 | 60 to 65 | 0 | CC(C)CCc1c(-c2ccc(S(C)(=O)=O)cc2)cnn(-c2cccc(Cl)c2)c1=O [Example 366, 2-(3-Chloropenyl)-4-(3-methylbutyl)-5-[4-(methysulfonyl)phenyl]-3(2H)-pydazinone] | 63 | ED50 [2]: 1.5 mg/kg |
| 18 | – | 77 | 174 to 177 | 0 | CS(=O)(=O)c1ccc(-c2cnn(-c3cccc(Cl)c3)c(=O)c2Cc2ccccc2)cc1 [Example 367, 2-(3-Chlorophenyl)-4-benzyl-5-[4-(methylsulfonyl)phenyl]-3(2H)-pyridazinone] | 48 | inhibition at 0.3 µM ([3]; 0.3 μM, read-out: HWPX % Inhib. at Dose): 8%; inhibition at 1 µM ([3]; 1 μM, read-out: HWPX % Inhib. at Dose): 50% |

Further lines, the compound ahead of its results:

| Compound | IC50 [1] [nM] | IC50 [3] [nM] | IC50 [4] [nM] | melting point [°C] | inhibition at 100 µM [5, 7] [%] | inhibition in vivo at 3 mg/kg [2] [%] | also measured |
| --- | --- | --- | --- | --- | --- | --- | --- |
| 2-(4-Fluorophenyl)-4-(4-fluorophenoxy)-5-[4-(aminosulfonyl)phenyl]-3(2H)-pyridazinone [Example 385] | 23 | 2180 | – | – | – | – | CAP % Inhib. @ 3 mpk [2]: 65% |
| NS(=O)(=O)c1ccc(-c2cnn(CC=C(F)F)c(=O)c2-c2ccc(F)cc2)cc1 [Example 143, 2-(3,3-Difluoro-2-propenyl)-4-(4-fluorophenyl)-5-[4-(aminosulfonyl)phenyl]-3(2H)-pyridazinone] | 7 | – | 76 | 191 to 194 | 62 | 59 | inhibition at 10 µM [5, 6]: 43% |
| NS(=O)(=O)c1ccc(-c2cnn(Cc3ccc(F)c(F)c3F)c(=O)c2-c2ccc(F)cc2)cc1 [Example 153, 2-(2,3,4-Trifluorobenzyl)-4-(4-fluorophenyl)-5-[4-(aminosulfonyl)phenyl]-3(2H)-pyridazinone] | 46 | 2950 | 62 | 218 to 220 | 54 | 51 | inhibition at 10 µM [5, 6]: 35% |
| CS(=O)(=O)c1ccc(-c2cnn(-c3ccc(F)c(Cl)c3)c(=O)c2C2CCCCC2)cc1 [Example 246, 2-(3-Chloro-4-fluorophenyl)-4-cyclohexyl-5-[4-(methylsulfonl)phenyl]-3(2H)-pyridazinone] | 20 | – | 54 | – | 0 | 48 | – |
| CS(=O)(=O)c1ccc(-c2cnn(-c3ccc(F)c(Cl)c3)c(=O)c2Cc2ccccc2)cc1 [Example 248, 2-(3-Chloro-4-fluorophenyl)-4-benzyl-5-[4-(methylsulfonyl)phenyl]-3(2H)-pyridazinone] | 5 | – | 80 | – | 13 | 49 | inhibition at 10 µM ([3]; 10 μM, read-out: HWPX % Inhib. at Dose): 17%; inhibition at 30 µM ([3]; 30 μM, read-out: HWPX % Inhib. at Dose): 82% |
| CC(C)CCOc1c(-c2ccc(S(C)(=O)=O)cc2)cnn(C(C)(C)C)c1=O [Example 330, 2-(tert-Butyl)-4-(3-methylbutoxy)-5-[4-(methylsulfonyl)phenyl]-3(2H)-pyridazinone] | 5 | 16700 | – | – | 15 | 4.5 | inhibition at 0.01 µM [4, 8]: 5%; inhibition at 0.03 µM ([4]; 0.03 μM, read-out: RHUCX2 % Inh. at Dose): 72%; inhibition at 1 µM [4, 9]: 85% |
| CC(C)COc1c(-c2ccc(S(C)(=O)=O)cc2)cnn(-c2cccc(Cl)c2)c1=O [Example 335, 2-(3-Chlorophenyl)-4-(2-methylpropoxy)-5-[4-(methylsulfonyl)phenyl]-3(2H)-pyridazinone] | 23 | – | 1 | 166 to 169 | 5 | 45 | – |
| CC(C)=CCCOc1c(-c2ccc(S(C)(=O)=O)cc2)cnn(-c2ccc(F)c(F)c2)c1=O [Example 352, 2-(3,4-Difluorophenyl)-4-(4-methyl-3-penten-1-yloxy)-5-[4-(methylsulfonyl)phenyl]-5-3(2H)-pyridazinone] | – | 5500 | 154 | 88 to 90 | 0 | 89 | ED50 [2]: 5 mg/kg |
| CC(C)CCOc1c(-c2ccc(S(N)(=O)=O)cc2)cnn(-c2cccc(Cl)c2)c1=O [Example 394, 2-(3-Chlorophenyl)-4-(3-methylbutoxy)-5-[4-(aminosulfonyl)phenyl]-3(2H)-pyridazinone] | 19 | – | – | 137 to 139 | 86 | 70 | inhibition at 0.01 µM [4, 8]: 20%; inhibition at 0.1 µM ([4]; 0.1 μM, read-out: RHUCX2 % Inh. at Dose): 64%; inhibition at 1 µM [4, 9]: 94%; inhibition at 10 µM [5, 6]: 38% |
| CC(C)(O)COc1c(-c2ccc(S(C)(=O)=O)cc2)cnn(-c2ccc(F)c(F)c2)c1=O [Example 452, 2-(3,4-Difluorophenyl)-4-(2-hydroxy-2-methyl-1-propoxy)-5-[4-(methylsulfonyl)phenyl]-3(2H)-pyrridazinone] | – | – | – | – | – | – | Wish % Inhib. at Dose (μM) ([1]; 0.1 μM): 1 @ 0.1%; Wish % Inhib. at Dose (μM) ([1]; 1 μM): 56 @ 1%; RHUCX2 % Inh. at Dose (μM) ([4]; 1 μM): 15 @ 1%; CAP % Inhib. @ 3 mpk [2]: 71%; RHUCX1 % Inh. at Dose (μM) ([5]; 100 μM): 14 @ 100% |
